In this assay the test system is HUVEC / neo NHDF co-culture cord formation. Nature of the assay: Angiogenesis Cord Formation Assay. The class given is cell-based. To be noted: Homo sapiens, 288 h; 20 ng/mL VEGF, 12 day; cord area and angiogenesis index; read-out: IC50. As to the method:
Human neonatal dermal fibroblast cells (neo NHDF) are seeded into Parkard 96 well plate on the first day, and incubated in the 37° C. and 5% CO2 incubator. Human umbilical vein endothelial cells (HUVEC) are then plated on the top of neo NHDF cells. Starting the third day, the co-culture is treated with eight-dose series of the test compound (starting with 20 μM, 1:3 serial dilution) in the presence of 20 ng/mL vascular endothelial growth factor (VEGF). The compound and VEGF are replenished every two to three days. The assay is conducted over a 12 day period. Cells are fixed by cold 70% ethanol for 30 minutes on the 12th day and processed for anti human CD31 immunofluorescence. Cultures are incubated with mouse anti human CD31 antibody and then stained by goat anti mouse alexa 488 secondary antibody. Cells are also stained by Hoechst to visualize the nucleus. After the staining, the cord formation is captured and quantified using Cellomics Arrayscan® VTI high content image analysis platform adopting the tube formation BioApplication. Two parameters, the cord area and angiogenesis index, are used to calculate the relative potency of the test compound in this angiogenesis assay. The compounds of Examples 5 and 10 were tested and analyzed essentially as described above.

Each structure is given as a SMILES string.

One may read the IC50 as the concentration at which inhibition is half-maximal. Turning to `Cl.FC(F)(F)c1cccc(-c2c[nH]c(C3CCN(c4ncnc5[nH]ncc45)CC3)n2)c1` [Example 5, 4-{4-[4-(3-(Trifluoromethyl)-phenyl)-1H-imidazol-2-yl]-piperidin-1-yl}-1H-pyrazolo[3,4-d]pyrimidine hydrochloride], the IC50 was determined as 2920 nM.

The values are drawn from patent US8093383B2, “P70 S6 kinase inhibitors” (Eli Lilly and Company, priority 2007, dated 2012).
